Measurements from ChEMBL document CHEMBL1148720, “Extensive SAR and computational studies of 3-{4-[(benzylmethylamino)methyl]phenyl}-6,7-dimethoxy-2H-2-chromenone (AP2238) derivatives” (J Med Chem, 2007).

What was measured:
[1] = target: T1, Acetylcholinesterase (Homo sapiens, UniProt P22303); experiment: Inhibition of human recombinant AChE
[2] = target: Cholinesterase (Homo sapiens, UniProt P06276); experiment: Inhibition of human recombinant BChE
[3] = target: T1, Acetylcholinesterase; experiment: Inhibition of human AChE-mediated beta amyloid 1-40 aggregation at 100 uM

T1 sequence (P22303 whole entry): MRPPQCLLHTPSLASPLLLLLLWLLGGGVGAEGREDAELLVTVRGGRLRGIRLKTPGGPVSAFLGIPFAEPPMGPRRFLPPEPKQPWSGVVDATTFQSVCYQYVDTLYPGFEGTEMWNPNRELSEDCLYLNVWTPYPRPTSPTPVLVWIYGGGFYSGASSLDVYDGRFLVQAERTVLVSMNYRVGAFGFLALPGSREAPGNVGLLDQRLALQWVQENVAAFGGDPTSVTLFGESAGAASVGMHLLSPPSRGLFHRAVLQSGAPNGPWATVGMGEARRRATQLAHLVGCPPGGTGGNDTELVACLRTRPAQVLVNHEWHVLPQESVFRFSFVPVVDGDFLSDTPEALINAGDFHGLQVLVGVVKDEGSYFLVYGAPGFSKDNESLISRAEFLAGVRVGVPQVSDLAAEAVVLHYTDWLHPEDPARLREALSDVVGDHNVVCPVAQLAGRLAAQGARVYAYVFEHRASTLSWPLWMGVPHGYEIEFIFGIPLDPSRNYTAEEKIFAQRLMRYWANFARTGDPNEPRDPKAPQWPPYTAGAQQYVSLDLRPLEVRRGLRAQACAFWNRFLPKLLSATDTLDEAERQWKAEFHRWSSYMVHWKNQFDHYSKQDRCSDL
Cholinesterase, sequence (P06276 whole entry): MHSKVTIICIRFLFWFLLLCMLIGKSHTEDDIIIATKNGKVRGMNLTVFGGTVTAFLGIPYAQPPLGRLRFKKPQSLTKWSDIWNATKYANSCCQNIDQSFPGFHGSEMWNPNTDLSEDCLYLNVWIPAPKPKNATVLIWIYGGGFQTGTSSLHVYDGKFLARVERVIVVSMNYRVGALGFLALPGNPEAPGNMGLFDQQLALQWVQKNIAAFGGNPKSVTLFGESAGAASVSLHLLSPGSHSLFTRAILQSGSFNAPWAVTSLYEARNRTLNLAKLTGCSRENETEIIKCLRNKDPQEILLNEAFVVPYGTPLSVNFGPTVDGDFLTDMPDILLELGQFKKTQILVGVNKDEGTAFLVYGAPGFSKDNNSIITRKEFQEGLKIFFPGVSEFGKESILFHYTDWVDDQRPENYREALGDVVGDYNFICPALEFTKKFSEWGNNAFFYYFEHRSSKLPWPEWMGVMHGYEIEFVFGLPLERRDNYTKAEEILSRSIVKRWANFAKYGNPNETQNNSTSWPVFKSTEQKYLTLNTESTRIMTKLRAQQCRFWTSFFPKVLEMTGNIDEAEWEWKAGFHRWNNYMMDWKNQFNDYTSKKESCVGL

SMILES	IC50 [1]	IC50 [2]	inhibition [3]
COc1cc2cc(-c3ccc(CN(C)Cc4ccccc4[N+](=O)[O-])cc3)c(=O)oc2cc1OC	0.987 µM	–	–
COc1ccc2oc(-c3ccc(CN(C)Cc4ccccc4)cc3)cc(=O)c2c1	18.1 µM	88.9 µM	–
COc1cccc(CN(C)Cc2ccc(-c3cc4cc(OC)c(OC)cc4oc3=O)cc2)c1	0.714 µM	–	–
COc1cc2cc(-c3ccc(CN(C)Cc4ccc(C)cc4)cc3)c(=O)oc2cc1OC	0.31 µM	–	–
COc1cc2cc(-c3ccc(CN(C)Cc4cccc(C)c4)cc3)c(=O)oc2cc1OC	0.122 µM	–	–
COc1ccc2c(=O)cc(-c3ccc(CN(C)Cc4ccccc4)cc3)oc2c1	80.5 µM	–	–
COc1cc2oc3cc(CN(C)Cc4ccccc4)ccc3c(=O)c2cc1OC	30.3 µM	–	–
COc1cc2cc(-c3ccc(CN(CCO)Cc4ccccc4)cc3)c(=O)oc2cc1OC	0.0493 µM	35.1 µM	6%
COc1cc2occ(-c3ccc(CN(C)Cc4ccccc4)cc3)c(=O)c2cc1OC	1.23 µM	–	–
CN(Cc1ccccc1)Cc1ccc(-c2cc3cc(N)ccc3oc2=O)cc1	0.281 µM	–	< 5%
COc1ccccc1CN(C)Cc1ccc(-c2cc3cc(OC)c(OC)cc3oc2=O)cc1	0.0621 µM	52.9 µM	15%
COc1ccc2cc(-c3cccc(CN(C)Cc4ccccc4)c3)c(=O)oc2c1	2.29 µM	–	–
COc1ccc2oc(=O)c(-c3cccc(CN(C)Cc4ccccc4)c3)cc2c1	0.303 µM	136 µM	–
CN(Cc1ccccc1)Cc1ccc(-c2cc3cc([N+](=O)[O-])ccc3oc2=O)cc1	0.148 µM	–	< 5%
COc1cc2cc(-c3ccc(CN(C)Cc4cccc([N+](=O)[O-])c4)cc3)c(=O)oc2cc1OC	0.368 µM	–	–
COc1ccc2oc(=O)c(-c3ccc(CN(C)Cc4ccccc4)cc3)cc2c1	0.163 µM	1300 µM	< 5%
COc1cc2occ(-c3cccc(CN(C)Cc4ccccc4)c3)c(=O)c2cc1OC	2.02 µM	–	–
COc1cc2cc(-c3ccc(CN(C)Cc4ccccc4C)cc3)c(=O)oc2cc1OC	0.366 µM	–	–
COc1cc2oc(-c3cccc(CN(C)Cc4ccccc4)c3)cc(=O)c2cc1OC	2.27 µM	–	–
CCN(Cc1ccccc1)Cc1cccc(-c2coc3cc(OC)c(OC)cc3c2=O)c1	1.59 µM	–	–
COc1ccc(CN(C)Cc2ccc(-c3cc4cc(OC)c(OC)cc4oc3=O)cc2)cc1	2.26 µM	–	–
COc1cc2cc(-c3ccc(CN(C)Cc4ccccc4)cc3)c(=O)oc2cc1OC	–	–	35%
CCN(Cc1ccccc1)Cc1ccc(-c2cc3cc(OC)c(OC)cc3oc2=O)cc1	0.0183 µM	–	38%
COc1cc2cc(-c3cccc(CN(C)Cc4ccccc4)c3)c(=O)oc2cc1OC	0.202 µM	279 µM	25%
COc1ccc2cc(-c3ccc(CN(C)Cc4ccccc4)cc3)c(=O)oc2c1	0.892 µM	570 µM	< 5%
COc1cc2cc(-c3ccc(C[N+](C)(C)Cc4ccccc4)cc3)c(=O)oc2cc1OC	0.0105 µM	43.8 µM	–
